The values that follow come from US9975861B2, “Dual inhibitor compounds for use in the treatment of neurodegenerative disorders and alzheimer's disease” (FONDAZIONE ISTITUTO ITALIANO DI TECNOLOGIA, priority 2014, dated 2018).

The test system of data set [1] is triggering receptor expressed on myeloid cells 2 (TREM2). The experiment in a line: Western blot analysis of TREM2 (M2 marker) in LPS-treated microglia cells. The data set is classed as cell-based, rat. Particulars: LPS 100 ng/mL, 24 hours co-treatment; microglia cells (FIG. 5c). The method, then: (§1) Mixed glial cell cultures were prepared from cerebral cortex of newborn Wistar rats (Rattus norvegicus), as previously described [Monti, B.; D'Alessandro, C.; Farini, V.; Bolognesi, A.; Polazzi, E.; Contestabile, A.; Stirpe, F.; Battelli, M. G. In vitro and in vivo toxicity of type 2 ribosome-inactivating proteins lanceolin and stenodactylin on glial and neuronal cells. Neurotoxicology 2007, 28, 637-644]. Briefly, brain tissue was cleaned from meninges, trypsinized for 15 minutes at 37° C. and, after mechanical dissociation, the cell suspension was washed and plated on poly-L-lysine (Sigma-Aldrich, St. Louis, Mo., USA, 10 μg/mL) coated flasks (75 cm^2). Mixed glial cells were cultured for 10-13 days in Basal Medium Eagle (BME, Life technologies Ltd, Paisley, UK) supplemented with 100 mL/L heat-inactivated FBS (Life technologies), 2 mmol/L glutamine (Sigma-Aldrich) and 100 μmol/L gentamicin sulfate (Sigma-Aldrich).
Microglial cells were harvested from mixed glial cell cultures by mechanical shaking, resuspended in fresh medium without serum and plated on uncoated 35 mm Ø dishes at a density of 1.5×10^6 cells/1.5 mL medium/well for western blot analysis or on 96 wells at 1×10^5 cells/0.2 mL medium/well for MTT assay. […]
J. Biol. Chem. 1951, 193, 265-275]. […] Labelled proteins were detected by using the enhanced chemiluminescence method (ECL; Bio-RAD). […]
(In western blotting, separated proteins are transferred to a membrane and probed.)

Data set [2] concerns inducible nitric oxide synthase (iNOS). The experiment in a line: Western blot analysis of iNOS (M1 marker) in LPS-stimulated glial cells. The data set is classed as cell-based. Particulars: LPS 100 ng/mL, 24 hours co-treatment, 0, 5, 10 and 20 μM; dose-dependent; primary rat glial cells (FIGS. 5a, b). The method, then: as §1
Microglial cells were harvested from mixed glial cell cultures by mechanical shaking, resuspended in fresh medium without serum and plated on uncoated 35 mm Ø dishes at a density of 1.5×10^6 cells/1.5 mL medium/well for western blot analysis or on 96 wells at 1×10^5 cells/0.2 mL medium/well for MTT assay. Cells were allowed to adhere for 30 minutes and then washed to remove non-adhering cells. […]

In data set [3] the test system is glial and neuronal cells. The experiment in a line: MTT assay, viability of brain cells in primary cultures. The data set is classed as cell-based, rat. Particulars: 0, 10, 20 and 50 μM for 24 hours; up to 50 μM; microglia, astrocytes, cerebellar granular neurons (FIGS. 4a-4c). Here is the method:
as §1, with “(Sigma-Aldrich). […]” for “(Sigma-Aldrich).”
Neurotoxicology 2007, 28, 637-44]. […] Following a 20 minutes incubation for CGNs and 2 hours for glial cells at 37° C. in the dark, the MTT precipitate was dissolved in 0.1 M Tris-HCl buffer containing 5% Triton X-100 (all from Sigma-Aldrich) and absorbance was read at 570 nm in a multiplate spectophotometric reader (Bio-Rad).
For orientation: Tetrazolium assays rely on reduction of a dye to a coloured formazan, in cell work by metabolically active cells.

`CCNC1=NC(c2ccc(F)cc2)NC(=O)N1` (racemic) [Example 3, 6-(ethylamino)-4-(4-fluorophenyl)-3,4-dihydro-1,3,5-triazin-2(1H)-one]: in data set [1], the “TREM2 expression reduced by LPS” value was “restored”. Besides, the “LPS-induced iNOS induction” value in data set [2] was “reduced”. Besides, the “toxicity in glial and neuronal cells (MTT viability)” value in data set [3] is “did not display any toxicity”.

Turning to `CCCNC1=NC(c2ccc(F)cc2)NC(=O)N1` (stereo not drawn) [Example 6, 4-(4-fluorophenyl)-6-(propylamino)-3,4-dihydro-1,3,5-triazin-2(1H)-one], the “TREM2 expression reduced by LPS” value in data set [1] was “restored”. For the same molecule, the “LPS-induced iNOS induction” value in data set [2] is on record as “reduced”. For the same molecule, in data set [3], the “toxicity in glial and neuronal cells (MTT viability)” value is reported as “did not display any toxicity”.
